Legend:
Cbl-b [1] = target: T1, Cbl-b (Homo sapiens, UniProt Q13191); assay: Cbl-b inhibition assay (Cbl-b activity assay, FRET, Biological Example 1; 100 mM NaCl, 60 nM Src kinase); format: biochemical; settings: upper bound stated in text lists; read-out: IC50 values in the Cbl-b inhibition assay of Biological Example 1
How it was run: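 Here, the E2 UbcH5B, irreversibly linked to Bodipy-fluorescein ubiquitin, binds Cbl-b once Src kinase phosphorylates it; Cbl-b carries an N-terminal biotinylated Avi-tag captured by streptavidin-terbium. An absent FRET signal indicates inhibition.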

T-cell = assay: CD25 cell surface staining on T-cells stimulated with anti-CD3 antibody alone (Biological Example 2); format: cell-based, human; settings: T-cell, fold change over baseline, primary human total T-cells, read-out: CD25 staining Anti-CD3 stimulation; for fold induction at 1 µM: 1 μM Cbl-b inhibitor; for fold induction at 8 µM: 8 μM Cbl-b inhibitor
Cbl-b [2] = target: T1, Cbl-b; assay: Cbl-b activity assay (Cbl-b inhibition assay), TR-FRET of Cbl-b interaction with UbcH5B-Ub; format: biochemical
How it was run: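 Compound-treated Cbl-b was incubated 1.5 h with Src kinase (60 nM final; 30 nM for asterisked values, which also used 50 mM instead of 100 mM NaCl), 1 mM ATP and 5 mM MgCl2. Binding to fluorescent Ub-loaded UbcH5B (C85K mutant) was then read by TR-FRET after 1 h more.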

[3] = assay buffer with 100 mM NaCl, 60 nM Src kinase, read-out: Cbl-b activity IC50

T1 sequence (Q13191 36-427): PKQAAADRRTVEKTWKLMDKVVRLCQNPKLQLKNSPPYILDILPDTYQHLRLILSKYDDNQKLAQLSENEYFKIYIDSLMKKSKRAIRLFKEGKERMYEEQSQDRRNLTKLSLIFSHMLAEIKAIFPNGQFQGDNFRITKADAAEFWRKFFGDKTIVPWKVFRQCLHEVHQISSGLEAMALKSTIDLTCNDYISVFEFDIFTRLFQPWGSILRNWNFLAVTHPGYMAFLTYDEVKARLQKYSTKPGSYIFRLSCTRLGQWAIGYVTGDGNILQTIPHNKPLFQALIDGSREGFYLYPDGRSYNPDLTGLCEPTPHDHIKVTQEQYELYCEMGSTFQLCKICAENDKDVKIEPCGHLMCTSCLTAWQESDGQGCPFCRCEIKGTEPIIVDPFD

| SMILES | IC50 (Cbl-b [1]) [nM] | fold induction at 1 µM (T-cell) | fold induction at 8 µM (T-cell) | IC50 (Cbl-b [2]; [3]) [µM] | IC50 (Cbl-b [2]; * assay buffer containing 50 mM NaCl instead of 100 mM NaCl and 30 nM Src kinase instead of 60 nM, read-out: Cbl-b activity IC50 (μM)*) [µM] |
| --- | --- | --- | --- | --- | --- |
| C[C@H](Sc1nncn1C)c1cccc(NC(=O)c2cncc(C(F)(F)F)n2)c1 [Compound 77, N-[3-[(1S)-1-[(4-methyl-1,2,4-triazol-3-yl)sulfanyl]ethyl]phenyl]-6-(trifluoromethyl)pyrazine-2-carboxamide] | ≤ 500 | < 0.6 | 0.601 to 0.8 | 0.301 to 1 |  |
| C[C@H](Sc1nncn1C)c1cccc(NC(=O)c2cc3c(Cl)cccc3[nH]2)c1 [Compound 78, 4-chloro-A-[3-[(LS)-1-[(4-methyl-1,2,4-triazol-3-yl)sulfanyl]ethyl]phenyl]-1H-indole-2-carboxamide] | ≤ 500 | 0.601 to 0.8 | 0.801 to 1 | 0.1 to 0.3 |  |
| C[C@H](Sc1nncn1C)c1cccc(NC(=O)c2cccc(S(C)(=O)=O)n2)c1 [Compound 80, (S)-N-(3-(1-((4-methyl-4H-1,2,4-triazol-3-yl)thio)ethyl)phenyl)-6-(methylsulfonyl)picolinamide] | ≤ 10000 | < 0.6 | < 0.6 | 1 to 3 |  |
| C[C@H](Sc1nncn1C)c1cccc(NC(=O)c2cccc(C(C)(F)F)n2)c1 [Compound 81, (S)-6-(1,1-difluoroethyl)-N-(3-(1-((4-methyl-4H-1,2,4-triazol-3-yl)thio)ethyl)phenyl)picolinamide] | ≤ 500 | 0.801 to 1 | > 1 | 0.1 to 0.3 |  |
| C[C@H](Sc1nncn1C)c1cccc(NC(=O)c2cc(C(C)(C)O)cc(C(F)(F)F)n2)c1 [Compound 85, 4-(1-hydroxy-1-methyl-ethyl)-N-[3-[(1S)-1-[(4-methyl-1,2,4-triazol-3-yl)sulfanyl]ethyl]phenyl]-6-(trifluoromethyl)pyridine-2-carboxamide] | ≤ 500 | 0.601 to 0.8 | > 1 | 0.1 to 0.3 |  |
| C[C@H](Sc1nncn1C)c1ccc(F)c(NC(=O)c2cccc(C(F)(F)F)n2)c1 [Compound 95a, (S)-N-(2-fluoro-5-(1-((4-methyl-4H-1,2,4-triazol-3-yl)thio)ethyl)phenyl)-6-(trifluoromethyl)picolinamide] | ≤ 500 | < 0.6 | < 0.6 | 0.301 to 1 |  |
| C[C@H](Sc1nnc[nH]1)c1cccc(NC(=O)c2cc3ccccc3cn2)c1 [Compound 98, (S)-N-(3-(1-((4H-1,2,4-triazol-3-yl)thio)ethyl)phenyl)isoquinoline-3-carboxamide] | ≤ 1000 | < 0.6 | < 0.6 | 0.301 to 1 | 1 to 3 |
| Cc1cc(C(=O)Nc2cc([C@H](C)Sc3nncn3C)ccn2)nc(C(F)(F)F)c1 [Compound 103, (S)-4-methyl-N-(4-(1-((4-methyl-4H-1,2,4-triazol-3-yl)thio)ethyl)pyridin-2-yl)-6-(trifluoromethyl)picolinamide] | ≤ 1000 | < 0.6 | 0.801 to 1 | 0.301 to 1 |  |
| C[C@H](Sc1nncn1C)c1ccnc(NC(=O)c2cc(C3CC3)cc(C(F)(F)F)n2)c1 [Compound 104, (S)-4-cyclopropyl-N-(4-(1-((4-methyl-4H-1,2,4-triazol-3-yl)thio)ethyl)pyridin-2-yl)-6-(trifluoromethyl)picolinamide] | ≤ 1000 | 0.601 to 0.8 | 0.801 to 1 | 0.301 to 1 |  |
| C[C@H](Sc1nncn1C)c1ccnc(NC(=O)c2cc(Cl)cc(C(F)(F)F)n2)c1 [Compound 105, (S)-4-chloro-N-(4-(1-((4-methyl-4H-1,2,4-triazol-3-yl)thio)ethyl)pyridin-2-yl)-6-(trifluoromethyl)picolinamide] | ≤ 1000 | < 0.6 | 0.601 to 0.8 | 0.301 to 1 |  |
| Cc1ccc(C(=O)Nc2cc([C@H](C)Sc3nncn3C)ccn2)nc1C1CC1 [Compound 113, (S)-6-cyclopropyl-5-methyl-N-(4-(1-((4-methyl-4H-1,2,4-triazol-3-yl)thio)ethyl)pyridin-2-yl)picolinamide] | ≤ 1000 | < 0.6 | < 0.6 | 0.301 to 1 |  |
| C[C@H](Sc1nncn1C)c1ccnc(NC(=O)c2cc3c(C(F)(F)F)cccc3[nH]2)c1 [Compound 120, N-[4-[(1S)-1-[(4-methyl-1,2,4-triazol-3-yl)sulfanyl]ethyl]-2-pyridyl]-4-(trifluoromethyl)-1H-indole-2-carboxamide] | ≤ 500 | < 0.6 | < 0.6 | 0.1 to 0.3 |  |
| Cc1nc2cc([C@H](C)Sc3nncn3C)cc(NC(=O)c3cccc(C(F)(F)F)n3)c2o1 [Compound 130a, (S)-N-(2-methyl-5-(1-((4-methyl-4H-1,2,4-triazol-3-yl)thio)ethyl)benzo[d]oxazol-7-yl)-6-(trifluoromethyl)picolinamide] | ≤ 1000 | 0.601 to 0.8 | > 1 | 0.301 to 1 |  |
| C[C@H](Sc1nncn1C)c1cccc(NC(=O)c2cc(C(=O)N3CC(O)C3)ccn2)c1 [Compound 148, (S)-4-(3-hydroxyazetidine-1-carbonyl)-N-(3-(1-((4-methyl-4H-1,2,4-triazol-3-yl)thio)ethyl)phenyl)picolinamide] | ≤ 500 | < 0.6 | 0.601 to 0.8 | 0.301 to 1 |  |
| C[C@H](Sc1nncn1C)c1cccc(NC(=O)c2cc(C(=O)N3C[C@H](O)C[C@@H]3C)ccn2)c1 [Compound 151, 4-((2S,4R)-4-hydroxy-2-methylpyrrolidine-1-carbonyl)-N-(3-((S)-1-((4-methyl-4H-1,2,4-triazol-3-yl)thio)ethyl)phenyl)picolinamide] | ≤ 1000 | < 0.6 | 0.601 to 0.8 | 0.301 to 1 |  |
| C[C@H](Sc1nncn1C)c1cccc(N2Cc3c(cccc3C(F)(F)F)C2=O)c1 [Compound 166a, (S)-2-(3-(1-((4-methyl-4H-1,2,4-triazol-3-yl)thio)ethyl)phenyl)-4-(trifluoromethyl)isoindolin-1-one] | ≤ 500 | 0.601 to 0.8 | 0.801 to 1 | 0.1 to 0.3 |  |
| C[C@H](Sc1nncn1C)c1cccc(N2Cc3c(ccnc3Cl)C2=O)c1 [Compound 167, 4-chloro-2-[3-[(1S)-1-[(4-methyl-1,2,4-triazol-3-yl)sulfanyl]ethyl]phenyl]-3H-pyrrolo[3,4-c]pyridin-1-one] | ≤ 500 | < 0.6 | 0.601 to 0.8 | 0.301 to 1 |  |
| CC(Sc1nncn1C)c1cc(F)cc(N2Cc3c(cccc3C(F)(F)F)C2=O)c1 [Compound 168, 2-[3-fluoro-5-[(1R)-1-[(4-methyl-1,2,4-triazol-3-yl)sulfanyl]ethyl]phenyl]-4-(trifluoromethyl)isoindolin-1-one] | ≤ 500 | 0.801 to 1 | 0.601 to 0.8 | 0.301 to 1 |  |
| C[C@H](Sc1nncn1C)c1cc(F)cc(N2Cc3c(cccc3C(F)(F)F)C2=O)c1 [Compound 168a, 2-[3-fluoro-5-[(1S)-1-[(4-methyl-1,2,4-triazol-3-yl)sulfanyl]ethyl]phenyl]-4-(trifluoromethyl)isoindolin-1-one] | ≤ 500 | < 0.6 | 0.801 to 1 | 0.1 to 0.3 |  |
| C[C@H](Sc1nncn1C)c1ccnc(N2Cc3c(cccc3C(F)(F)F)C2=O)c1 [Compound 172a, (S)-(4-(1-((4-methyl-4H-1,2,4-triazol-3-yl)thio)ethyl)pyridin-2-yl)-4-(trifluoromethyl)isoindolin-1-one] | ≤ 1000 | < 0.6 | < 0.6 | 0.301 to 1 |  |
| C[C@H](Cc1nncn1C)c1cccc(NC(=O)c2cccc(S(C)(=O)=O)n2)c1 [Compound 185, (R)-N-(3-(1-(4-methyl-4H-1,2,4-triazol-3-yl)propan-2-yl)phenyl)-6-(methylsulfonyl)picolinamide] | ≤ 1000 | < 0.6 | < 0.6 | 0.301 to 1 |  |
| C[C@H](Cc1nncn1C)c1cccc(NC(=O)c2cc(C(C)(C)O)c(Cl)cn2)c1 [Compound 186, (R)-5-chloro-4-(2-hydroxypropan-2-yl)-N-(3-(1-(4-methyl-4H-1,2,4-triazol-3-yl)propan-2-yl)phenyl)picolinamide] | ≤ 500 | < 0.6 | < 0.6 | 0.301 to 1 |  |
| C[C@H](Cc1nncn1C)c1cccc(NC(=O)c2ccnc(C(F)(F)F)n2)c1 [Compound 187, (R)-N-(3-(1-(4-methyl-4H-1,2,4-triazol-3-yl)propan-2-yl)phenyl)-2-(trifluoromethyl)pyrimidine-4-carboxamide] | ≤ 500 | 0.801 to 1 | > 1 | 0.1 to 0.3 |  |
| C[C@H](Cc1nncn1C)c1cccc(NC(=O)c2cccc(C(F)(F)CO)n2)c1 [Compound 188, (R)-6-(1,1-difluoro-2-hydroxyethyl)-N-(3-(1-(4-methyl-4H-1,2,4-triazol-3-yl)propan-2-yl)phenyl)picolinamide] | ≤ 500 | < 0.6 | < 0.6 | 0.1 to 0.3 |  |

Reference: patent publication US20220324835A1 (Nurix Therapeutics, Inc., priority 2018, published 2022)
